Tests used:
[1] = target: Keap1-Nrf2 PPI (Keap1 Kelch domain protein / FITC-9mer Nrf2 peptide amide) (Homo sapiens, UniProt Q14145); experiment: Fluorescence polarisation; format: binding; settings: for inhibition at 50 µM: read-out: inhibitory rate against Keap1-Nrf2 PPI; for inhibitory activities against Keap1-Nrf2 PPI compared to compound K3: FP assay, 5 and 50 μM, R2 substituent varied
[2] = Metabolic stability in human liver microsomes; format: in vitro ADME; settings: pH 7.4

Keap1-Nrf2 PPI (Keap1 Kelch domain protein / FITC-9mer Nrf2 peptide amide), sequence (Q14145 321-609 limits assumed): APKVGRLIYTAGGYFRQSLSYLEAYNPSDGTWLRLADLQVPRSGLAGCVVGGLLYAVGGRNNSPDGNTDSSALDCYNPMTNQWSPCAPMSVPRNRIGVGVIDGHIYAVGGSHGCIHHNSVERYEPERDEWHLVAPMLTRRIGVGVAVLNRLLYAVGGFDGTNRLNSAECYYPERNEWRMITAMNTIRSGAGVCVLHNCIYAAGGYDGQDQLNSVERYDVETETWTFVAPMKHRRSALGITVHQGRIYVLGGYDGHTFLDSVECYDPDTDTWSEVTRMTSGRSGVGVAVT

SMILES	IC50 [1] [µM]	inhibition at 50 µM [1] [%]	inhibitory activities against Keap1-Nrf2 PPI compared to compound K3 [1]	remaining at 0.5 h, 10 μM [2] [%]
COc1ccc(S(=O)(=O)Nc2ccc(NS(=O)(=O)c3ccc(OC)cc3)cc2)cc1 [K3]	36.3	~68	–	–
COc1ccc(S(=O)(=O)Nc2ccc(NS(=O)(=O)c3ccccc3)cc2)cc1 [K10]	–	–	markedly decreased	–
COc1ccc(S(=O)(=O)Nc2ccc(NS(=O)(=O)c3ccc(C)cc3)cc2)cc1 [K11]	–	–	markedly decreased	–
COc1ccc(S(=O)(=O)Nc2ccc(NS(=O)(=O)c3ccc(-c4ccccc4)cc3)cc2)cc1 [K14]	–	–	markedly decreased	–
COc1ccc(S(=O)(=O)Nc2ccc(NS(=O)(=O)Cc3ccccc3)cc2)cc1 [K15]	–	–	markedly decreased	–
COc1ccc(S(=O)(=O)Nc2ccc(NS(=O)(=O)c3ccc4ccccc4c3)cc2)cc1 [K16]	–	–	markedly decreased	–
COc1ccc(S(=O)(=O)Nc2ccc(NS(=O)(=O)c3cccc4cccnc34)cc2)cc1 [K17]	–	–	markedly decreased	–
COc1ccc(S(=O)(=O)Nc2ccc(NS(=O)(=O)c3cccnc3)cc2)cc1 [K18]	~31.5	72	slightly higher	–
COc1ccc(S(=O)(=O)Nc2ccc(NS(=O)(=O)c3ccc(OC)cc3)c(CCC(=O)O)c2)cc1 [KP-1]	0.74	–	–	–
O=C(CCc1ccc(O)cc1)c1c(O)cc(O)cc1O [PHL, Phloretin, reference compound]	8.67	–	–	10.3

From publication PMC9518255 (Journal of Enzyme Inhibition and Medicinal Chemistry, 2022)
